Test results reported in publication PMC7363035 (ACS infectious diseases, 2020).
Like-named read-outs stand apart in the source and are kept apart here. Marks after values point to notes of the source that are not given here.

Assays:
[1] = Mouse pharmacokinetics after a single oral dose; type: in vivo
[2] = Log D in octanol/PBS pH 7.4; type: physicochemical
Solubility in PBS pH 7.4 = type: physicochemical
Mouse liver microsome = type: in vitro ADME; conditions: mouse liver microsomes; data generated via Medicines for Malaria Venture
P. berghei = conditions: cited from earlier work
[3] = cited from earlier work
[4] = human liver microsomes; cited from earlier work
[5] = cited from earlier work; remark: listed apart in the source
[6] = single dose of 50 mg/kg by oral gavage, male CD-1 mice
[7] = male, CD-1, mouse, plasma, po, 50 mg/kg

Row | Structure (SMILES) | fold lower systemic exposure than 8c or 8n ([1]; mouse PK study with oral dosing) | AUClast [1, 6] [ng·h/mL] | Cmax [1, 6] [ng/mL] | Tmax [1, 6] [h] | Log D in octanol/PBS; pH 7.4 ([2]; data generated via Medicines for Malaria Venture) | Solubility in PBS pH 7.4 (Solubility in PBS pH 7.4) [μM] | MLM CLint (Mouse liver microsome) [µL/min/mg] | MLM T1/2 (Mouse liver microsome) [min] | cures (P. berghei; Experiment 1, PO 6 mg/kg/day (4 days), female Swiss Webster mice, cured = parasitemia undetectable at day 30) | Solubility in PBS pH 7.4 [3] | HLM CLint [4] [µL/min/mg] | HLM T1/2 [4] [min] | AUC(0-t) [1, 7] [ng·h/mL] | Tmax [1, 7] [h] | logD [2] | effective single dose in the P. berghei model (P. berghei; single dose) [mg/kg] | Log D in octanol/PBS; pH 7.4 [5]
1 | O=C(O[C@@H]1CCC[C@]2(C1)OOC1(O2)C2CC3CC(C2)CC1C3)N1CCNCC1 (stereo partly drawn) [8e, (1R,3”R)-Dispiro[adamantane-2,3’-[1,2,4]trioxolane-5’,1”-cyclohexan]-3”-yl piperazine-1-carboxylate] | ~ three-fold | 1070 ± 127 | 223 ± 25 | 2 | 3.25 | 157.0 | 321 | 4.3 | – | – | – | – | – | – | – | – | –
2 | CC(C)(N)CNC(=O)C[C@H]1CC[C@]2(CC1)OO[C@]1(O2)C2CC3CC(C2)CC1C3 [OZ277, arterolane] | – | – | – | – | – | – | – | – | 4/5 | 504 μM | <7 | >60 | – | – | – | – | –
3 | c1cc([C@H]2CC[C@]3(CC2)OO[C@]2(O3)C3CC4CC(C3)CC2C4)ccc1OCCN1CCOCC1 [OZ439, artefenomel] | – | – | – | – | – | – | – | – | – | 0.181^b μM | – | – | 52600 ± 4810 | 2 | 5.81 | 20 | 5.5
